From patent US8673578B2, “Methods of identifying antagonists of the hTAS2R46 bitter taste receptor” (Deutsches Institut für Ernahrungsforschung Potsdam-Rehbrücke, priority 2009, dated 2014)

Legend:
Type in all cases: cell-based
[1] = molecular target: T1, hTAS2R38 (Homo sapiens, UniProt P59533); assay: calcium imaging (FLIPR), activation of hTAS2R-transfected HEK293T-Gα16gust44 cells; conditions: 100 μM test substance, bath application; DMSO control
T1 construct: expressed in transfected cells; host or cells: HEK293T cells stably expressing chimeric Gα16gust44, transient transfection
T1 sequence (P59533 1-333): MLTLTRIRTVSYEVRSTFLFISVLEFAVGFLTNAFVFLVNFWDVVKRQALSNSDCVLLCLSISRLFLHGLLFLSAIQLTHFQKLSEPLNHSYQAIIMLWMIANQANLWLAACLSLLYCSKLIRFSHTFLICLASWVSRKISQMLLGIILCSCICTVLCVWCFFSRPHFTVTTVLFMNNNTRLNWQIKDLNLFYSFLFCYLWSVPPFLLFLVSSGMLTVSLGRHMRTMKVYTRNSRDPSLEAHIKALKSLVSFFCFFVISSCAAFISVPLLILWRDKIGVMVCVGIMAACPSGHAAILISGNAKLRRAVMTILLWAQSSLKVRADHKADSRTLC
Source text: (§1) Human TAS2R cDNAs were cloned into pcDNA5/FRT (Invitrogen, San Diego, Calif.). For adequate plasma membrane targeting, receptor cDNA was fused to the aminoterminal sequence of the rat somatostatin type 3 receptor at the aminoterminus of the recombinant protein (Bufe, B., T. Hofmann, et al. (2002) Nat Genet. 32(3): 397-401). For immunological detection, the Herpes simplex Glycoprotein D epitope was supplemented at the carboxyterminus of the recombinant protein (Bufe et al., supra). Receptor constructs were transiently transfected into HEK293T cells stably expressing the chimeric G protein subunit Gα16gust44 (Ueda, T., S. Ugawa, et al. (2003) J Neurosci 23(19): 7376-80) using Lipofectamine 2000 (Invitrogen, San Diego, Calif.) in 96-well plates.
(§2) Calcium Imaging experiments were performed 24 h after transfection using a Fluorometric Imaging Plate Reader (FLIPR, Molecular Devices, Munich, Germany) as previously described (Bufe et al., supra). Taste active compounds were ordered from Sigma (Sigma-Aldrich, Taufkirchen, Germany). Absinthin, 3β hydroxy dihydro costunolide and 3β hydroxy pelenolide were kindly provided by Giovanni Appendino (Novara, Italy). Test substances were directly dissolved in C1 buffer (130 mM NaCl, 10 mM Na-Hepes, 10 mM Glucose, 5 mM KCl, 2 mM CaCl2, pH 7.4) or in DMSO, respectively. DMSO stocks were further diluted in C1 buffer not exceeding a final DMSO concentration of 1% on the cells. For the investigation of antagonistic effects, test substances were premixed. Agonists were applied at concentrations corresponding to EC90, except where indicated otherwise (Table 2). Data were collected from 3 independent experiments performed in quadruplicates and processed with SigmaPlot (SPSS, Chicago, Ill.). Fluorescence signals after application of test substances were corrected for and normalized to background fluorescence (ΔF/F═(F−F0)/F0), and baseline noise was subtracted. Calculation of dose-response curves was done by nonlinear regression using the function f(y)=((a−d)/(1+(x/EC50)^nH)+d).
(§3) In a first series of experiments we tested the two sesquiterpene lactones 3β hydroxy dihydro costunolide (formula (I) in FIG. 1) and 3β hydroxy pelenolide (formula (II) in FIG. 1) for their ability to activate hTAS2 receptor-expressing HEK293T cells.
(§4) Signal amplitudes were comparatively small (FIG. 2C).

[2] = molecular target: T2, hTAS2R7 (Homo sapiens, UniProt Q9NYW3); assay: as above; conditions: 100 μM test substance, bath application
T2 construct: expressed in transfected cells; host or cells: HEK293T cells stably expressing chimeric Gα16gust44, transient transfection
T2 sequence (Q9NYW3 1-318): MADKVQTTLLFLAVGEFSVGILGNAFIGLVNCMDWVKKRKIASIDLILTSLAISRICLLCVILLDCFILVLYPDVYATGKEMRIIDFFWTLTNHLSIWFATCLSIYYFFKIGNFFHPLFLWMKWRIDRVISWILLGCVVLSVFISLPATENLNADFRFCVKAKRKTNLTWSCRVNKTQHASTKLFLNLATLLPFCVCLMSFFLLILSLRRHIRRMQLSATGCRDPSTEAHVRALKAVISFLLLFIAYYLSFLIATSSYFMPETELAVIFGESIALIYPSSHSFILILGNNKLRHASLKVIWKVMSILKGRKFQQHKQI
Source text: as §1, §2, §3, §4

[3] = molecular target: T3, hTAS2R4 (Homo sapiens, UniProt Q9NYW5); assay: as above; conditions: 100 μM test substance, bath application
T3 construct: expressed in transfected cells; host or cells: HEK293T cells stably expressing chimeric Gα16gust44, transient transfection
T3 sequence (Q9NYW5 1-299): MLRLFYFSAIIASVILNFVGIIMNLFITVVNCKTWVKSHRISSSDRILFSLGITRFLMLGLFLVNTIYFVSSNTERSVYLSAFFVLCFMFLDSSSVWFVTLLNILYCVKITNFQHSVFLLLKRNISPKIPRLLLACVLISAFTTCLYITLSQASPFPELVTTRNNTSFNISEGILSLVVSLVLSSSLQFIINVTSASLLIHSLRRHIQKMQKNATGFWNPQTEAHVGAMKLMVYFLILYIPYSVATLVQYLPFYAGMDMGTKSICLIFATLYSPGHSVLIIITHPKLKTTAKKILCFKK
Source text: as §1, §2, §3, §4

[4] = molecular target: T4, hTAS2R8 (Homo sapiens, UniProt Q9NYW2); assay: as above; conditions: 100 μM test substance, bath application
T4 construct: expressed in transfected cells; host or cells: HEK293T cells stably expressing chimeric Gα16gust44, transient transfection
T4 sequence (Q9NYW2 1-309): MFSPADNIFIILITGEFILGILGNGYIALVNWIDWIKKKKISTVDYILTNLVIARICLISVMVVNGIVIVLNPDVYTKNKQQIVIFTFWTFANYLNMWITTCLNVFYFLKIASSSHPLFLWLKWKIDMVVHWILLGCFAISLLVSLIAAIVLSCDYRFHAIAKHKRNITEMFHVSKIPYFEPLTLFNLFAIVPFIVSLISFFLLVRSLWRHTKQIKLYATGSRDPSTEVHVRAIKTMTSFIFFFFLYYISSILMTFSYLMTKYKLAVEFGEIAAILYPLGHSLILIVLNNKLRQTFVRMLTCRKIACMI
Source text: as §1, §2, §3, §4

[5] = molecular target: T5, hTAS2R44 (Homo sapiens, UniProt P59538, L162M); assay: calcium imaging (FLIPR), effect on agonist-dependent hTAS2R activation; conditions: 100 μM test substance; agonist aristolochic acids 3 μM (EC90); agonist alone = 100%
T5 construct: expressed in transfected cells; host or cells: HEK293T cells stably expressing chimeric Gα16gust44, transient transfection
T5 sequence (P59538 1-309 L162M): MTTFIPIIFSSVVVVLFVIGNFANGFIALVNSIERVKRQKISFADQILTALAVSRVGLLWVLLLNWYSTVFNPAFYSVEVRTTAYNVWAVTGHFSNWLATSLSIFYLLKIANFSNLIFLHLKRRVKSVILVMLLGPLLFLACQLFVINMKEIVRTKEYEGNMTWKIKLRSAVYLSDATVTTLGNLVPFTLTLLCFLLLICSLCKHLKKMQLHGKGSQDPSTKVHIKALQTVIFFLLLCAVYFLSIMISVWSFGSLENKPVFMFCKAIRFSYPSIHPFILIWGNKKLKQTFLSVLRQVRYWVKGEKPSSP
Source text: as §1, §2
To test 3β hydroxy dihydro costunolide and 3β hydroxy pelenolide for antagonistic or enhancing effects on hTAS2R activation, transfected cells were stimulated with cognate agonist bitter substances at EC90 concentrations (Table 2) without 3β hydroxy dihydro costunolide and 3β hydroxy pelenolide. The cellular responses after application of the agonist alone were set to 100%, responses obtained after coapplication of agonists and 100 μM 3β hydroxy dihydro costunolide or 100 μM 3β hydroxy pelenolide are shown relative to this value (FIG. 4).

Structure (SMILES)	calcium response of hTAS2R38-transfected cells [1]	calcium response of hTAS2R7-transfected cells [2]	calcium response of hTAS2R4-transfected cells [3]	calcium response of hTAS2R8-transfected cells [4]	agonist-dependent response of hTAS2R44-expressing cells on coapplication [5]
C/C1=C\C[C@H](O)/C(C)=C/[C@H]2OC(=O)[C@@H](C)C2CC1 (stereo partly drawn) [3β hydroxy dihydro costunolide]	generated by DMSO used as solvent	responded	responded	responded	
C/C1=C\C[C@H](O)[C@@H](C)C[C@H]2OC(=O)[C@@H](C)[C@@H]2CC1 [3β hydroxy pelenolide]					moderately attenuating effect
